Data on 28 molecules can be found in US9701646B2, “Small molecule inhibitors of PI3-kinase signaling” (Tufts University, priority 2013, dated 2017).

Read-outs that look alike come from different tables or passages of the source. Where only a bound is given, the exact number is not on record here.

Data set [1] is described as follows: Micellar drug release by dialysis. The class given is physicochemical. Conditions: 37° C. Here is the method:
Drug-loaded micelles were analyzed for their in vitro drug release profile at 37° C. in 1×PBS pH 7.4 over 48 hrs. Micelles were prepared as described previously. 500 μL of drug-loaded micelles were aliquoted into Spectra/Pro® regenerated cellulose dialysis membranes with a MWCO of 1,000 Da and dialyzed against a large excess of 1×PBS pH 7.4. At predetermined times, dialysis bags were opened and aliquots of sample were taken and diluted with 200 μL acetonitrile. Drug concentration was determined by HPLC using previously described methods.

Data set [2] can be described thus: Micellar drug loading by reverse phase HPLC. It counts as physicochemical. To be noted: PEG-PE micelles, PEG-PE 13.07 mg/mL, n = 3 with SD. Here is the method: Drug incorporation efficiency was measured by reverse phase HPLC using an Xbridge C18 ([…]) column (Waters Corporation, Milford, Mass.) on a Hitachi Elite LaChrom HPLC with autosampler (Pleasanton, Calif.). The HPLC method was modified from previously published method. Skidan I et al., J Chromatogr B Analyt Technol Biomed Life Sci 879:1610-1616 (2011). The mobile phase consisted of either 70:30 acetonitrile:water (DM-PIT-1) or 60:40 acetonitrile:water (NCL-176, NCL-179, NCL-198, NCL-240) with a flow rate of 1 mL/min. Detection of drug was performed at a wavelength corresponding to a peak on the absorption spectrum (DM-PIT-1: 320 nm, NCL-176: 260 nm, NCL-179: 295 nm, NCL-198: 295 nm, NCL-240: 300 nm). Sample injections were kept constant at 50 μL and the sample runtime was 10 min. Concentration of drug was determined by measuring the area under curve of the peak. Standard curves of stock drug in acetonitrile from concentrations of 10 μg/mL to 15 ng/mL were used to determine incorporation of drug in micelles. 5 μL of dialyzed drug-loaded micelles were diluted in 495 μL acetonitrile to destroy micelles.

For data set [3], the system named is A2780 human ovarian cancer cells. Kind of data set: Cell viability of A2780 cells, ATP assay. It counts as cell-based. Conditions: A2780, 24 h; for EC50: Homo sapiens. On the procedure:
A2780 human ovarian cancer cells were maintained in culture at 37° C., 5% CO2, complete medium for 24 h in the presence of various final concentrations of DM-PIT-1, YK-NCL-176, YK-NCL-198, or NK-YCL-240, each in DMSO, with or without 1 μg/mL TRAIL. DMSO alone was used as a negative control. Following the incubation, cell viability was measured using an ATP assay.
A2780 human ovarian cancer cells were maintained in culture at 37° C., 5% CO2, complete medium for 24 h in the presence of various final concentrations of DM-PIT-1, YK-NCL-217, YK-NCL-218, NK-YCL-219, YK-NCL-220, YK-NCL-234, or YK-NCL-241, each in DMSO, with or without 1 μg/mL TRAIL. DMSO alone was used as a negative control. Following the incubation, cell viability was measured using an ATP assay.

The subject of data set [4] is U87MG human glioblastoma cells. Kind of data set: Cell viability of U87MG cells, ATP assay. The class given is cell-based. To be noted: Homo sapiens, U-87 MG, 24 h. On the procedure:
U87MG human glioblastoma cells were maintained in culture at 37° C., 5% CO2, complete medium for 24 h in the presence of various final concentrations of YK-NCL-176, YK-NCL-177, YK-NCL-178, YK-NCL-179, YK-NCL-180, YK-NCL-183, YK-NCL-184, YK-NCL-185, YK-NCL-186, YK-NCL-187, YK-NCL-188, YK-NCL-189, YK-NCL-190, YK-NCL-191, YK-NCL-192, YK-NCL-193, YK-NCL-194, YK-NCL-195, YK-NCL-196, YK-NCL-197, NK-YCL-198, or YK-NCL-199, each in DMSO, with or without 1 μg/mL TRAIL. DMSO alone was used as a negative control. Following the incubation, cell viability was measured using an ATP assay.

The test system of the next data set is A2780 ovarian carcinoma. Briefly: A2780 cell viability, CellTiter-Blue, free and micellar formulations. The class given is cell-based, human. To be noted: A2780, 24 h, free compound. Here is the method:
Cell viability of A2780 ovarian carcinoma was measured using CellTiter-Blue® (Promega, Madison, Wis.) viability assay. Briefly, cells were seeded in 96-well plates according to proper cell densities (3,000-5,000 cells). After 24 h incubation in 5% CO2 at 37° C., cells were treated with formulations at various concentrations for 24 h in serum complete media. After 24 h treatment, media was removed, the wells were washed with serum complete media and replaced with 50 μL media and 10 μL CellTiter-Blue®. Cell viability was evaluated after 4 h of incubation at 37° C. at 5% CO2 by measuring the fluorescence (ex. 550 nm, em. 590 nm) using a Synergy HT multi-detection microplate reader (Biotek, Winooski, Vt.).
On the technique in general: Resazurin is reduced to fluorescent resorufin, in cell work by metabolically active cells.

Setting [5] is: in DMSO, without TRAIL, read-out: EC50 alone.
Where [6] appears, read: with 1 μg/mL TRAIL, read-out: EC50 with TRAIL.

What is called EC50 is the concentration needed to bring the measured effect to its halfway point. Regarding `Cc1cc(C)cc(C(=O)NC(=S)Nc2cc([N+](=O)[O-])ccc2O)c1` [DM-PIT-1, N-[(2-hydroxy-5-nitrophenyl)amino]carbonothioyl-3,5-dimethylbenzamide, reference compound], the “drug released from micelles” value in data set [1] (1×PBS pH 7.4, at 10 h) is “completely released”. Besides, in data set [2], the “Loading Eff.” value is on record as “slightly lower loading”. Besides, in data set [3] (alone), the “concentration at which cell viability was reduced by at least 50 percent” value is 25 µM. Also, the “cell viability in combination with TRAIL” value in data set [3] (with 1 μg/mL TRAIL, versus compound alone) is on record as “further reduced cell viability”. Also, the figures for the EC50 in data set [3] (setting [5]) and in data set [3] (setting [6]) were 30.5 µM and 18.7 µM, respectively.

As to `COc1ccc(Cl)cc1-n1nncc1C(=O)c1ccccc1` [YK-NCL-177], the EC50 in data set [4] (setting [5]) and in data set [4] (setting [6]) was more than 100 µM throughout.

On to `COc1ccc(Cl)cc1-n1cc(C(=O)c2ccccc2)nn1` [YK-NCL-178], for which the EC50 in data set [4] (setting [5]) and in data set [4] (setting [6]) was more than 100 µM each time.

Regarding `Oc1ccc(Cl)cc1-n1cc(C(O)(c2ccccc2)c2cn(-c3cc(Cl)ccc3O)nn2)nn1` [YK-NCL-179, 2,2′-(4,4′-(hydroxy(phenyl)methylene)bis(1H-1,2,3-triazole-4,1-diyl))bis(4-chlorophenol)], the “drug released from micelles” value in data set [1] (1×PBS pH 7.4, after 48 h) was 40%. Also, the “cytotoxicity as free compound compared to DM-PIT-1” value with A2780 ovarian carcinoma is recorded as “improved cytotoxicity properties”. Besides, the EC50 turned out to be 36.7 µM in data set [4] (setting [5]) and 20.4 µM in data set [4] (setting [6]).

On to `COc1ccc(Cl)cc1-n1cc(C(O)(c2ccccc2)c2cn(-c3cc(Cl)ccc3OC)nn2)nn1` [YK-NCL-180], for which the EC50 in data set [4] (setting [5]) and in data set [4] (setting [6]) was more than 100 µM in each case.

As to `Cc1cc(C)cc(C(=O)c2cn(-c3ccc(Cl)cc3O)nn2)c1` [YK-NCL-183], the figures for the EC50 in data set [4] (setting [5]) and in data set [4] (setting [6]) were more than 100 µM and 64.4 µM, respectively.

`Cc1ccc(O)c(-n2cc(C(=O)c3ccccc3)nn2)c1` [YK-NCL-184]: the EC50 in data set [4] (setting [5]) and in data set [4] (setting [6]) was more than 100 µM throughout.

On to `Cc1cccc(O)c1-n1cc(C(=O)c2ccccc2)nn1` [YK-NCL-185], for which the EC50 in data set [4] (setting [5]) is 8.1 µM; in data set [4] (setting [6]) it was 8 µM.

Take `O=C(c1ccc2ccccc2c1)c1cn(-c2cc(Cl)ccc2O)nn1` [YK-NCL-186]: the EC50 in data set [4] (setting [5]) and in data set [4] (setting [6]) was more than 100 µM in each case.

For `Cc1cccc(O)c1-n1cc(C(=O)c2ccc3ccccc3c2)nn1` [YK-NCL-187], the EC50 is 85.2 µM in data set [4] (setting [5]) and 74.9 µM in data set [4] (setting [6]).

For `Cc1ccc(O)c(-n2cc(C(=O)c3ccc4ccccc4c3)nn2)c1` [YK-NCL-188], the EC50 in data set [4] (setting [5]) and in data set [4] (setting [6]) was more than 100 µM in each case.

As for `O=C(c1ccc2ccccc2c1)c1cn(-c2ccc([N+](=O)[O-])cc2O)nn1` [YK-NCL-189], the EC50 in data set [4] (setting [5]) and in data set [4] (setting [6]) was more than 100 µM each time.

For the molecule `Cc1cc(C)cc(C(=O)c2cn(-c3cc(Cl)ccc3O)nn2)c1` [YK-NCL-190], the EC50 in data set [4] (setting [5]) is 57.8 µM; in data set [4] (setting [6]) it was 30.6 µM.

Take `O=C(c1ccccc1)c1cn(-c2ccc(Cl)cc2O)nn1` [YK-NCL-191]: the figures for the EC50 in data set [4] (setting [5]) and in data set [4] (setting [6]) were 48.9 µM and 42.3 µM, respectively.

Regarding `Cc1cc(C)cc(C(=O)c2cn(-c3c(C)cccc3O)nn2)c1` [YK-NCL-192], the EC50 in data set [4] (setting [5]) stood at 104 µM; in data set [4] (setting [6]), 98.4 µM.

Take `Cc1cc(C)cc(C(=O)c2cn(-c3cc(C)ccc3O)nn2)c1` [YK-NCL-193]: the EC50 in data set [4] (setting [5]) and in data set [4] (setting [6]) was more than 100 µM in each case.

As for `Cc1cc(C)cc(C(=O)c2cn(-c3ccc([N+](=O)[O-])cc3O)nn2)c1` [YK-NCL-194], the results for the EC50 in data set [4] (setting [5]) and in data set [4] (setting [6]) were 89.1 µM and 70.5 µM, respectively.

With `CC(C)c1ccc(C(=O)c2cn(-c3cc(Cl)ccc3O)nn2)cc1` [YK-NCL-195], the EC50 turned out to be 64.1 µM in data set [4] (setting [5]) and 41.6 µM in data set [4] (setting [6]).

With `Cc1cccc(O)c1-n1cc(C(=O)c2ccc(C(C)C)cc2)nn1` [YK-NCL-196], the EC50 in data set [4] (setting [5]) and in data set [4] (setting [6]) was more than 100 µM each time.

On to `Cc1ccc(O)c(-n2cc(C(=O)c3ccc(C(C)C)cc3)nn2)c1` [YK-NCL-197], for which the EC50 in data set [4] (setting [5]) and in data set [4] (setting [6]) was more than 100 µM in each case.

With `CC(C)c1ccc(C(=O)c2cn(-c3ccc([N+](=O)[O-])cc3O)nn2)cc1` [YK-NCL-199], the EC50 was more than 100 µM in data set [4] (setting [5]) and 95.3 µM in data set [4] (setting [6]).

For the molecule `Cc1cccc(O)c1-n1cc(C(O)(c2cc(C(F)(F)F)cc(C(F)(F)F)c2)c2cn(-c3c(C)cccc3O)nn2)nn1` [YK-NCL-217], the figures for the EC50 in data set [3] (setting [5]) and in data set [3] (setting [6]) were 50.9 µM and 13.5 µM, respectively.

Consider `Cc1cccc(O)c1-n1cc(C(O)(c2ccccc2)c2cn(-c3c(C)cccc3O)nn2)nn1` [YK-NCL-218], for which the EC50 in data set [3] (setting [5]) is more than 100 µM; in data set [3] (setting [6]), 22.8 µM.

Regarding `Cc1ccc(O)c(-n2cc(C(O)(c3ccccc3)c3cn(-c4cc(C)ccc4O)nn3)nn2)c1` [YK-NCL-219], the EC50 in data set [3] (setting [5]) worked out at 24.1 µM; in data set [3] (setting [6]), 9.2 µM.

As for `Cc1cc(C)cc(C(O)(c2cn(-c3c(C)cccc3O)nn2)c2cn(-c3c(C)cccc3O)nn2)c1` [YK-NCL-220], the EC50 in data set [3] (setting [5]) is more than 100 µM; in data set [3] (setting [6]), 16.9 µM.

As for `O=C(NCc1cn(-c2cc(Cl)ccc2O)nn1)c1cc(C(F)(F)F)cc(C(F)(F)F)c1` [YK-NCL-234], the 50% effective concentration (EC50) in data set [3] (setting [5]) stood at 16.2 µM; in data set [3] (setting [6]) it was 14 µM.

In the case of `Oc1ccc(Cl)cc1-n1cc(CC(O)(c2ccccc2)c2cn(-c3cc(Cl)ccc3O)nn2)nn1` (stereo not shown) [YK-NCL-241], the EC50 in data set [3] (setting [5]) and in data set [3] (setting [6]) was more than 100 µM throughout.

B1: TRAIL: Tumor necrosis factor (TNF)-related apoptosis-inducing ligand; recombinant His6-tagged human TRAIL produced in E. coli (protein, UniProt P50591 1-281, looked up)
Tumor necrosis factor ligand …: MAMMEVQGGPSLGQTCVLIVIFTVLLQSLCVAVTYVYFTNELKQMQDKYSKSGIACFLKEDDSYWDPNDEESMNSPCWQVKWQLRQLVRKMILRTSEETISTVQEKQQNISPLVRERGPQRVAAHITGTRGRSNTLSSPNSKNEKALGRKINSWESSRSGHSFLSNLHLRNGELVIHEKGFYYIYSQTYFRFQEEIKENTKNDKQMVQYIYKYTSYPDPILLMKSARNSCWSKDAEYGLYSIYQGGIFELKENDRIFVSVTNEHLIDMDHEASFFGAFLVG
modifications: His6 tag
notes: Tumor necrosis factor (TNF)-related apoptosis-inducing ligand; recombinant His6-tagged human TRAIL produced in E. coli
For B1, the “effect on cell viability” value in data set [3] (alone, 1 μg/mL) was “essentially no effect on cell viability”.
